Laboratory results as given in ChEMBL document CHEMBL3864168, “Imidazopyridazine Inhibitors of PI3Kβ” (ACS Med Chem Lett, 2016).

Assays:
[1] = molecular target: Phosphatidylinositol 4,5-bisphosphate 3-kinase catalytic subunit gamma isoform (Homo sapiens, UniProt P48736); assay: Binding affinity to human PI3Kgamma (144 to 1102 residues) expressed in mammalian expression system by KINOMEscan assay
[2] = molecular target: Phosphatidylinositol 4,5-bisphosphate 3-kinase catalytic subunit alpha isoform (Homo sapiens, UniProt P42336); assay: Binding affinity to human PI3Kalpha (108 to 1068 residues) expressed in mammalian expression system by KINOMEscan assay
[3] = molecular target: T1, Phosphatidylinositol 4,5-bisphosphate 3-kinase catalytic subunit beta isoform (Homo sapiens, UniProt P42338); assay: Inhibition of PI3Kbeta in human PC3 cells assessed as suppression of AKT phosphorylation at Thr308 after 60 mins by ELISA; type: cell-based, PC-3
[4] = molecular target: T1, Phosphatidylinositol 4,5-bisphosphate 3-kinase catalytic subunit beta isoform; assay: Inhibition of PI3Kbeta in human PC3 cells assessed as suppression of AKT phosphorylation at Ser473 after 60 mins by ELISA; type: cell-based, PC-3
[5] = molecular target: Serine/threonine-protein kinase mTOR (Homo sapiens, UniProt P42345); assay: Binding affinity to human MTOR (1382 to 2549 residues) expressed in mammalian expression system by KINOMEscan assay
[6] = molecular target: T1, Phosphatidylinositol 4,5-bisphosphate 3-kinase catalytic subunit beta isoform; assay: Binding affinity to human PI3Kbeta (118 to 1070 residues) expressed in mammalian expression system by KINOMEscan assay
[7] = molecular target: T2, Phosphatidylinositol 4,5-bisphosphate 3-kinase catalytic subunit delta isoform (Homo sapiens, UniProt O00329); assay: Binding affinity to human PI3Kdelta (108 to 1044 residues) expressed in mammalian expression system by KINOMEscan assay
T2 sequence (O00329 whole entry): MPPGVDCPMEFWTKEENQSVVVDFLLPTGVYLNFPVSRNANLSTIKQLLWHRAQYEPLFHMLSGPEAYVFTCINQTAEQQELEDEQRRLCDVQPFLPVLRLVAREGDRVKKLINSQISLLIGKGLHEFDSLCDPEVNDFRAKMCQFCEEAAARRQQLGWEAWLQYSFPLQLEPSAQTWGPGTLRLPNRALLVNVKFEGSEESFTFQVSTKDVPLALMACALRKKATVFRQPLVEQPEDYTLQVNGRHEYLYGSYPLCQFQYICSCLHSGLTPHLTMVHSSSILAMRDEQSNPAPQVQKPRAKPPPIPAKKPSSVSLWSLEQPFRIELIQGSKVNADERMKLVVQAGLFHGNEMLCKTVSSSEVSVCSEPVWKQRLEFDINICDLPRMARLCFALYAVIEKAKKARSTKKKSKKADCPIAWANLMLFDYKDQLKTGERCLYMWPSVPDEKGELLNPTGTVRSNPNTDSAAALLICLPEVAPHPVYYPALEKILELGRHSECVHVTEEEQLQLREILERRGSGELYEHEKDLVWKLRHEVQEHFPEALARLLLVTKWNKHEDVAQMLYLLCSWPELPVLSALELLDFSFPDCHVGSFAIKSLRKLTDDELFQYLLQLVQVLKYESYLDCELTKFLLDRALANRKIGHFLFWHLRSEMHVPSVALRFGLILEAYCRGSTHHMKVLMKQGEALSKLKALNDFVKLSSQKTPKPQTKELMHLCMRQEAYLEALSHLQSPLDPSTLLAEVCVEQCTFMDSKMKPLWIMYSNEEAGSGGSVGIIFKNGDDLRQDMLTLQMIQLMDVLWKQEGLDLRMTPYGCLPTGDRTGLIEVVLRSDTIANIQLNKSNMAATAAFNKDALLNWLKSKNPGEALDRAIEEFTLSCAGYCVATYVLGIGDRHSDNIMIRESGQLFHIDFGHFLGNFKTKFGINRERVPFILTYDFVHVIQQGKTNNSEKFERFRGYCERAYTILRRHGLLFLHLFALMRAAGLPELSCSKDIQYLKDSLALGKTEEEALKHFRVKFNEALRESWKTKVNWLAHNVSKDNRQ

T1 sequence (P42338 whole entry, canonical isoform): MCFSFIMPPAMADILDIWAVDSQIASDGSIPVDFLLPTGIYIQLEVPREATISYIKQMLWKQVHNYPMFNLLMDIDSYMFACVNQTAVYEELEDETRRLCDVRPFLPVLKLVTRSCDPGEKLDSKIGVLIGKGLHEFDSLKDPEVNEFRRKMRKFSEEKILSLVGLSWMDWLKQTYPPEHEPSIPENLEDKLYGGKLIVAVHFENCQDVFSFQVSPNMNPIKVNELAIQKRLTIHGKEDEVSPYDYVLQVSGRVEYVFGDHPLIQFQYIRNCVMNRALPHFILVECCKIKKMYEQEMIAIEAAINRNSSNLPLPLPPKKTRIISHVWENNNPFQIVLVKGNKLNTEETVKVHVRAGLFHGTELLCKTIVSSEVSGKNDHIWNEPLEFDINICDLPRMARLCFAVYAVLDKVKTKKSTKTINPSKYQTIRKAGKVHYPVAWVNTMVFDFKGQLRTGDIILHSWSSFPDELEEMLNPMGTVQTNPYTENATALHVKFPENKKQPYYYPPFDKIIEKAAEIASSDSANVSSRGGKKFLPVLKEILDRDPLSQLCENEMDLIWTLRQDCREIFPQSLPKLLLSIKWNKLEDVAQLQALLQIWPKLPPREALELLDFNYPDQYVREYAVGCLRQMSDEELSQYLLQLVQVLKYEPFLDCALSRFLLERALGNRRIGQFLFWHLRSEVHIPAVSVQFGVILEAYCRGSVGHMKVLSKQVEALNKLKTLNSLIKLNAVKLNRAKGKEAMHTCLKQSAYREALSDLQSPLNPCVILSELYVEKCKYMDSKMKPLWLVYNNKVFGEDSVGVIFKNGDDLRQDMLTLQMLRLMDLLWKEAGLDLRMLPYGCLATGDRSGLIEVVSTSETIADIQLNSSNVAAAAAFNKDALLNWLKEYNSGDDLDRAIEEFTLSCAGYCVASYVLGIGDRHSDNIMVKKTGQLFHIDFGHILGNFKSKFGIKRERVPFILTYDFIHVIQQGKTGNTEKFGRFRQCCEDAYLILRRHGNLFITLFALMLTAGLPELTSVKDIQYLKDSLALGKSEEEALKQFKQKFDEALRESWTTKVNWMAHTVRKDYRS
Phosphatidylinositol 4,5-bisphosphate 3-kinase catalytic subunit gamma isoform, sequence (P48736 whole entry, the tested form may be a part, canonical isoform): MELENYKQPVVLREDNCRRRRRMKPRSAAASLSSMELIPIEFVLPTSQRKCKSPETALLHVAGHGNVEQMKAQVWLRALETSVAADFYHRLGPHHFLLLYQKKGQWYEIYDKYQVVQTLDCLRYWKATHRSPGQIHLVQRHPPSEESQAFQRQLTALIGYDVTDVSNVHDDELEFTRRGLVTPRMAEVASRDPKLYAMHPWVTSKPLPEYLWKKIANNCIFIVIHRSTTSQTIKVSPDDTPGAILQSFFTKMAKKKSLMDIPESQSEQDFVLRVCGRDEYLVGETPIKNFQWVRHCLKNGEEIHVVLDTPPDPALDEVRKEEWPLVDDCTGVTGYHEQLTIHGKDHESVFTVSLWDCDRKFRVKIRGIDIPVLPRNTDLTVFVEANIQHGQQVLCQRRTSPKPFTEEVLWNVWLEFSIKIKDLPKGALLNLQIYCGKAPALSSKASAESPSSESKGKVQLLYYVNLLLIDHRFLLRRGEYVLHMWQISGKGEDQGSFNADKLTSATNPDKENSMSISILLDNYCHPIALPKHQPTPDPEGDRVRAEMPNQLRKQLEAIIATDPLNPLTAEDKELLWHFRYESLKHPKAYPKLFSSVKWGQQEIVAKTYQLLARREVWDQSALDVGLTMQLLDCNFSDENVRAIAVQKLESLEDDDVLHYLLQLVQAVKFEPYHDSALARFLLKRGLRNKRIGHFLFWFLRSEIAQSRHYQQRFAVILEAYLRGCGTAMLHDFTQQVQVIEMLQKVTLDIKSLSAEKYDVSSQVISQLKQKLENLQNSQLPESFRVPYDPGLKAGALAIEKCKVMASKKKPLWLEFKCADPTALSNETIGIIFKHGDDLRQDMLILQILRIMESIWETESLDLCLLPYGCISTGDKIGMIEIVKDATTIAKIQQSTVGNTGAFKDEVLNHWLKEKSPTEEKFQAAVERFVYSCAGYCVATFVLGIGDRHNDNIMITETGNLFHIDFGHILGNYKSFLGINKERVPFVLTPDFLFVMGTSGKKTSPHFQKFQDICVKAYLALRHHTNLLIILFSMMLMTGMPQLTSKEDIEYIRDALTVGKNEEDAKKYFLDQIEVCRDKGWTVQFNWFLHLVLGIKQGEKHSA
Phosphatidylinositol 4,5-bisphosphate 3-kinase catalytic subunit alpha isoform, sequence (P42336 whole entry, the tested form may be a part, canonical isoform): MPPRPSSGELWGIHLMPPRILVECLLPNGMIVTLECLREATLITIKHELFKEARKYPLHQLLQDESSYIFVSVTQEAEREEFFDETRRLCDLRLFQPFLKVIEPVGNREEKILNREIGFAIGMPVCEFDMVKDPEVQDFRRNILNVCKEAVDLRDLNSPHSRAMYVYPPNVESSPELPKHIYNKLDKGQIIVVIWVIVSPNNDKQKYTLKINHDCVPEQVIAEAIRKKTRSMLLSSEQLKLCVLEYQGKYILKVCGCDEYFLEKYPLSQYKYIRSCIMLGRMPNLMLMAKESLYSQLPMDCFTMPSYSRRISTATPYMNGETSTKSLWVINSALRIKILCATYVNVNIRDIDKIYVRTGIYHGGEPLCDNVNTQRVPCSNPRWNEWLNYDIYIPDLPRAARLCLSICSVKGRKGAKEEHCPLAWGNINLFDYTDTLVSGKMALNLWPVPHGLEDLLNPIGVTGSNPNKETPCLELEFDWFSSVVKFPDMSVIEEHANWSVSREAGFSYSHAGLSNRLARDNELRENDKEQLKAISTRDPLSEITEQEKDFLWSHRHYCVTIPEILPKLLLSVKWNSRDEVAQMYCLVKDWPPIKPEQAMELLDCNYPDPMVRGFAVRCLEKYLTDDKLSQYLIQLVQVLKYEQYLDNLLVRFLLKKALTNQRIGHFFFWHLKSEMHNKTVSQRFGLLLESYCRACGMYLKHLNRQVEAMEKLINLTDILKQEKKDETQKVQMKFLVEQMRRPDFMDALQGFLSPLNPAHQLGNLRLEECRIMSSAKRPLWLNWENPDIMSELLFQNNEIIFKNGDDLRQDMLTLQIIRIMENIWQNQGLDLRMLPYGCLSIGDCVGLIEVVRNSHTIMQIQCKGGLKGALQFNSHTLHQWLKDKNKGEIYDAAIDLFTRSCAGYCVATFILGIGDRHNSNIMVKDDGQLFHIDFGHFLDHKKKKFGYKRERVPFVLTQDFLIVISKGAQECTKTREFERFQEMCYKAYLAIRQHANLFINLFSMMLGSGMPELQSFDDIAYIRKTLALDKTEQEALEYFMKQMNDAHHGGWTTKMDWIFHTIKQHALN

| SMILES | Kd [1] [µM] | Kd [2] [µM] | IC50 [3] [nM] | IC50 [4] [nM] | Kd [5] [µM] | Kd [6] [nM] | Kd [7] [nM] |
| --- | --- | --- | --- | --- | --- | --- | --- |
| Cc1c(Cc2c(CO)nc3c(N)cc(N4CCOCC4)nn23)cccc1C(F)(F)F [listing 1 of 2 here] | > 10 | > 30.2 | 38 | 46 | – | – | – |
| Cc1c(Cc2c(CN(C)CCS(C)(=O)=O)nc3c(N)cc(N4CCOCC4)nn23)cccc1C(F)(F)F | > 30.2 | – | 41 | 34 | – | – | – |
| Cc1c(Cc2c(CNCCS(C)(=O)=O)nc3c(N)cc(N4CCOCC4)nn23)cccc1C(F)(F)F | > 30.2 | – | 186 | 138 | – | – | – |
| Cc1nc2c(C(N)=O)cc(N3CCOCC3)nn2c1Cc1cccc(C(F)(F)F)c1C | > 30.2 | > 30.2 | > 513 | 501 | > 30.2 | – | – |
| Cc1c(Cc2c(CO)nc3c(N)cc(N4CCOCC4)nn23)cccc1C(F)(F)F [listing 2 of 2 here] | – | – | 41 | 52 | – | – | – |
| Cc1nc2c(C(=O)O)cc(N3CCOCC3)nn2c1Cc1cccc(C(F)(F)F)c1C | – | – | 316 | 513 | – | – | – |
| Cc1c(Cc2c(CO)nc3c(C(=O)O)cc(N4CCOCC4)nn23)cccc1C(F)(F)F | > 15.1 | – | > 513 | > 513 | – | – | – |
| Cc1nc2c(-c3cnc[nH]3)cc(N3CCOCC3)nn2c1Cc1cccc(C(F)(F)F)c1C | – | – | 48 | 59 | – | – | – |
| Cc1c(Nc2c(CO)nc3c(N)cc(N4CCOC(CO)C4)nn23)cccc1C(F)(F)F (stereo in doubt; 65) | 0.692 | 6.61 | 43 | 79 | 0.355 | 1.3 | 138 |
| Cc1c(Nc2c(CO)nc3c(N)cc(N4CCOC(CO)C4)nn23)cccc1C(F)(F)F (stereo in doubt; 66) | 13.5 | > 30.2 | 513 | > 513 | 1.38 | 138 | 11000 |

Stronger by IC50 [3], values ahead:

| Kd [1] [µM] | Kd [2] [µM] | IC50 [3] [nM] | IC50 [4] [nM] | Kd [5] [µM] | Kd [6] [nM] | Kd [7] [nM] | SMILES |
| --- | --- | --- | --- | --- | --- | --- | --- |
| > 30.2 | > 30.2 | 11 | 33 | > 30.2 | 2 | 59 | CC(=O)NCc1nc2c(-c3cnc[nH]3)cc(N3CCOCC3)nn2c1Cc1cccc(C(F)(F)F)c1C |
| 2.29 | 0.912 | 8 | 12 | 4.68 | 2.6 | 49 | Cc1nc2c(-c3cnc[nH]3)cc(N3CCOCC3)nn2c1Nc1cccc(C(F)(F)F)c1C |
| 19.6 | – | 33 | 44 | > 30.2 | – | 73 | Cc1nc2c(N)cc(N3CCOCC3)nn2c1Nc1cccc(C(F)(F)F)c1CN1CC(O)C1 |
| – | – | 17 | 21 | – | – | – | Cc1nc2c(N)cc(N3CCOCC3)nn2c1Nc1cccc(C(F)(F)F)c1CN1CCN(C)CC1 |
| 11.4 | 5.13 | 17 | 12 | 20.3 | 6 | 171 | Cc1nc2c(N)cc(N3CCOCC3)nn2c1Cc1cccc(C(F)(F)F)c1C |
| – | – | 17 | 174 | – | – | – | Cc1nc2c(-c3cnc[nH]3)cc(N3CCOCC3)nn2c1Nc1cccc(C(F)(F)F)c1CN1CC(O)C1 |
